Test results published in publication PMC8863579, “Effects of pharmacological inhibition of the sodium‐dependent phosphate cotransporter 2b (NPT2b) on intestinal phosphate absorption in mouse and rat models” (Pharmacology Research & Perspectives, 2022).
Several values for one entry are separate records, joined by “and”; a condition that tells them apart may be missing. Identical values can stand only once. Like-named read-outs stand apart in the source and are kept apart here.

Legend:
intestinal NPT2b = molecular target: T1, intestinal NPT2b (Mus musculus, UniProt Q9DBP0); experiment: Acute phosphate uptake into plasma in mice; type: in vivo; conditions: for ED50: mouse, po, read-out: ED50, inhibition of acute phosphate uptake into plasma; for Emax, maximum inhibition of phosphate uptake into plasma: oral
T1 construct: from tissue; host or cells: intestine of live male C57BL/6 mice, oral dosing
T1 sequence (Q9DBP0 1-697): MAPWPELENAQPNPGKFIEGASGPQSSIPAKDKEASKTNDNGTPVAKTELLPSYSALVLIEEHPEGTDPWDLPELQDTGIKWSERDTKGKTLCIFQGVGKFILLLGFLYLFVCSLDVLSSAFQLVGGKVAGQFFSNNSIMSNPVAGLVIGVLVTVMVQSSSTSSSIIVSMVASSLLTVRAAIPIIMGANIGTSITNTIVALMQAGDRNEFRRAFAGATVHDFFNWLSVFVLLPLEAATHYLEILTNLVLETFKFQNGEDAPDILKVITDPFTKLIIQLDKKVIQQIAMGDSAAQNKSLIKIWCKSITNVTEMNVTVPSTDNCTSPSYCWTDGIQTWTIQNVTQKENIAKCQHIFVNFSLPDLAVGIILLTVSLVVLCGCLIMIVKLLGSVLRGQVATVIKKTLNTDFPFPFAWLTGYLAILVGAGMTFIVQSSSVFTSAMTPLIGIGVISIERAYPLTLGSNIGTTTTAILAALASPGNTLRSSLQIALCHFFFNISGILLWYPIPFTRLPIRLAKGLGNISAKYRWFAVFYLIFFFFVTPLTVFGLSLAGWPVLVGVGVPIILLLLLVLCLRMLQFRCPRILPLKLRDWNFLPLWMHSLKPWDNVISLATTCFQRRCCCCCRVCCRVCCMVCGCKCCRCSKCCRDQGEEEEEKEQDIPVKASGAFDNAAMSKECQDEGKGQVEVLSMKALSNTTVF
Description: Male C57BL/6 male mice (n = 7–9/group) at the age of about 8–9 weeks (21–29 g) were fasted overnight and throughout the study. Mice were dosed orally with varying doses of LY3358966 SDD dissolved in water or a PVP‐VA vehicle control. Fifteen minutes later, a radioactive phosphate dosing solution (200 µl of 16.25 mM Na2HPO4, 0.9% saline, pH 7.4 supplemented with about one million dpm of H3 ^33PO4) was given by oral gavage. This dose of phosphate was chosen because it approximates the mouse equivalent of the amount of bioavailable phosphate in a human meal which is 4 mg/kg phosphorus, or 320 mg phosphorus for an 80 kg person on a phosphate restricted diet. Fifteen minutes later, blood was collected and radioactivity in the plasma was determined by scintillation counting. The inhibition of acute phosphate uptake into plasma by LY3358966 was determined by comparing the counts in the plasma from LY3358966‐treated animals to that in the plasma of the vehicle‐treated animals. ED50 values were then determined with a 4‐parameter logistic curve fitting model using GraphPad Prism 7.04.
To test the ability of LY3358966 to inhibit intestinal NPT2b activity in mice over time, the above mice were bled again at 3 h post compound dose to determine the residual radioactivity in the plasma. At 4 h post compound dose, the animals were again dosed with phosphate using threefold more H3 ^33PO4 than used in the first oral dose. Fifteen minutes later, blood was collected and radioactivity in the plasma was used to calculate LY3358966 inhibition of phosphate uptake into plasma. For this calculation, the residual counts at 3 h were first subtracted from the final counts at 4 h. The 3‐h counts were typically <15% of the 4‐h counts.

NPT2b = molecular target: T2, NPT2b (Rattus norvegicus, UniProt Q9JJ09); experiment: Acute phosphate uptake into plasma in rats; type: in vivo; conditions: 10 mg/kg
T2 construct: from tissue; host or cells: intestine of live Sprague Dawley rats, oral dosing
T2 sequence (Q9JJ09 1-695): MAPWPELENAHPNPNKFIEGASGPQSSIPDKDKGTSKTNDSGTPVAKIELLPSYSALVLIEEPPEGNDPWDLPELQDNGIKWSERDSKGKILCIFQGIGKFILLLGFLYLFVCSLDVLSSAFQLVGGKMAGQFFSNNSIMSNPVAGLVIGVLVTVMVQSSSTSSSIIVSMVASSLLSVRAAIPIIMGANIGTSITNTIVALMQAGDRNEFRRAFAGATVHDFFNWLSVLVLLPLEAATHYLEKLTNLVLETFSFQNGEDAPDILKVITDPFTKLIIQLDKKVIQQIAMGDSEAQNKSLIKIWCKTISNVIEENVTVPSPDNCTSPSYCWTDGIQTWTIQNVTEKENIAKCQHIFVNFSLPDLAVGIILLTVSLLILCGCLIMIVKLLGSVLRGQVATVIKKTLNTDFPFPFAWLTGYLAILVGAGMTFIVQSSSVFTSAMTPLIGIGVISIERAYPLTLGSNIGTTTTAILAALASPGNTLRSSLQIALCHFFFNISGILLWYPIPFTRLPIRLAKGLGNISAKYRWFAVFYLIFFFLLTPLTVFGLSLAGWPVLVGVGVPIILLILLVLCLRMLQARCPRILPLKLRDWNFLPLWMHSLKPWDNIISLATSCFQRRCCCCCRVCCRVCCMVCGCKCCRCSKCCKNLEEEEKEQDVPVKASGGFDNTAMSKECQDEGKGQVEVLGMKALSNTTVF
Description: A similar method was used to determine the ability of LY3358966 to inhibit acute phosphate uptake into plasma in Sprague Dawley rats (192–225 g, n = 14/group). In the rat studies, a 2 ml volume of the radioactive phosphate dosing solution (about 10 million dpm of H3 ^33PO4) was dosed to each animal. Due to the low inhibitory activity at 15 min after dosing the compound, the effect at 4 h was not determined.

gastric emptying = experiment: Gastric emptying assay in mice; type: in vivo, mouse; conditions: doses up to 100 mg/kg API
Description: Male C57BL/6 mice, approximately 7–8 weeks old (18–21 g), were fasted overnight. Then, the mice were orally administered a single dose of vehicle (water) or varying doses of LY3358966 SDD dissolved in water. Fifteen minutes later, radiolabeled phosphate was given by oral gavage. Another 15 min later, the animals were sacrificed, and intact stomachs were collected and placed in 50‐ml conical tubes. Ten milliliter of 1 N NaOH was added to each tube and the stomachs were digested at 37°C overnight. Radioactivity in 100 µl digested stomach homogenate was quantitated by scintillation counting. The percent radiolabeled phosphate recovered in the stomach was calculated as the percentage of dpm recovered in the stomach versus the total dpm of radiolabeled phosphate administered.

Compound: CC1(C)CN(C(=O)NCCCCO)CCN1Cc1cccc(C(=O)Nc2sc3c(c2C(=O)Nc2cc(F)c(CCc4ccc(C(=O)O)cc4)c(F)c2)CCCC3)c1 [LY3358966, 4‐[2‐[2,6‐difluoro‐4‐[[2‐[[3‐[[4‐(4‐hydroxybutylcarbamoyl)‐2,2‐dimethyl‐piperazin‐1‐yl]methyl]benzoyl]amino]‐4,5,6,7‐tetrahydrobenzothiophene‐3‐carbonyl]amino]phenyl]ethyl]benzoic acid]
- ED50 (intestinal NPT2b; 15 min post LY3358966 dose): 0.15 mg/kg
- ED50 (intestinal NPT2b; 4 h post LY3358966 dose): 1.1 mg/kg
- Emax, maximum inhibition of phosphate uptake into plasma (intestinal NPT2b; 15 min post LY3358966 dose): 74%
- Emax, maximum inhibition of phosphate uptake into plasma (intestinal NPT2b; 4 h post LY3358966 dose): 79%
- decrease of acute phosphate uptake into plasma, mean ± SEM of three studies (NPT2b; 15 min): 22% and 22 ± 3%
- decrease of phosphate absorption (acute uptake into plasma) (NPT2b; two additional single studies): 28.2% and 19.2%
- effect on gastric emptying (gastric emptying): no effect on gastric emptying
